Results reported in patent publication US9290478B2, “Substituted quinoxalines as FGFR kinase inhibitors” (ASTEX THERAPEUTICS LTD, priority 2010, dated 2016).

Experiments:
FGFR1 (h) = FGFR1 (h) (Homo sapiens, UniProt P11362); experiment: FGFR1 (enzymatic assay), TR-FRET; type: biochemical; conditions: 5 μM ATP; read-out: FGFR1 pIC50 (converted)
Procedure: In a final reaction volume of 30 μL, FGFR1 (h) (25 ng/ml) was incubated with 50 mM HEPES pH 7.5, 6 mM MnCl2, 1 mM DTT, 0.1 mM Na3VO4, 0.01% Triton-X-100, 500 nM Btn-Flt3 and 5 μM ATP in the presence of compound (1% DMSO final). After incubation for 60 minutes at room temperature the reaction was stopped with 2.27 nM EU-anti P-Tyr, 7 mM EDTA, 31.25 nM SA-XL-665 and 0.02% BSA which was present for 60 minutes at room temperature. Time-Resolved Fluorescence Resonance Energy Transfer (TR-FRET) signal (ex340 nm. Em 620 nm, em 655 nm) was measured afterwards and results are expressed in RFU (Relative Fluorescence Units). In this assay, the inhibitory effect of different compound concentrations (range 10 μM to 0.1 nM) was determined and used to calculate an IC50 (M) and pIC50 (−log IC50) value.

[1] = target: T1, Ba/F3-FGFR1-transfected cells (Homo sapiens, UniProt P11362); experiment: Ba/F3-FGFR1 (minus IL3 or plus IL3) cellular proliferation assay; type: cell-based; conditions: minus IL3
T1 construct: BAF3-FGFR1 (MIN IL3) pIC50; other: minus IL3
Procedure: (§1) Ba/F3-FGFR1 (Minus IL3 or Plus IL3) (Cellular Proliferation Assay)
(§2) In a 384 well plate, 100 nl of compound dilution in DMSO was sprayed before adding 50 μl cell culture medium (phenol red free RPMI-1640, 10% FBS, 2 mM L-Glutamine and 50 μg/ml Gentamycin) containing 20000 cells per well of Ba/F3-FGFR1-transfected cells. Cells were put in an incubator at 37° C. and 5% CO2. After 24 hours, 10 μl of Alamar Blue solution (0.5 mM K3Fe(CN)6, 0.5 mM K4Fe(CN)6, 0.15 mM Resazurin and 100 mM Phosphate Buffer) was added to the wells, incubated for 4 hours at 37° C. and 5% CO2 before RFU's (Relative Fluorescence Units) (ex. 540 nm., em. 590 nm.) were measured in a fluororescence plate reader.
(§3) In this assay, the inhibitory effect of different compound concentrations (range 10 μM to 0.1 nM) was determined and used to calculate an IC50 (M) and pIC50 (−log IC50) value.
(§4) As a counterscreen the same experiment was performed in the presence of 10 ng/ml murine IL3.

[2] = test system: Ba/F3-FGFR1-transfected cells; experiment: as above; type: cell-based; conditions: plus 10 ng/ml murine IL3 (counterscreen); for IC50: 24 h, read-out: BAF3-FGFR1 (PLUS IL3) pIC50 (converted)
Procedure: as §1, §2, §3, §4

[3] = target: T2, Ba/F3-Flt3-transfected cells (Homo sapiens, UniProt P36888, cells depend on it, form not given); experiment: Ba/F3-Flt3 (minus IL3 or plus IL3) cellular proliferation assay; type: cell-based; conditions: minus IL3
T2 construct: BAF3-FLT3 (MIN IL3) pIC50; other: minus IL3
T2 sequence (P36888 1-993): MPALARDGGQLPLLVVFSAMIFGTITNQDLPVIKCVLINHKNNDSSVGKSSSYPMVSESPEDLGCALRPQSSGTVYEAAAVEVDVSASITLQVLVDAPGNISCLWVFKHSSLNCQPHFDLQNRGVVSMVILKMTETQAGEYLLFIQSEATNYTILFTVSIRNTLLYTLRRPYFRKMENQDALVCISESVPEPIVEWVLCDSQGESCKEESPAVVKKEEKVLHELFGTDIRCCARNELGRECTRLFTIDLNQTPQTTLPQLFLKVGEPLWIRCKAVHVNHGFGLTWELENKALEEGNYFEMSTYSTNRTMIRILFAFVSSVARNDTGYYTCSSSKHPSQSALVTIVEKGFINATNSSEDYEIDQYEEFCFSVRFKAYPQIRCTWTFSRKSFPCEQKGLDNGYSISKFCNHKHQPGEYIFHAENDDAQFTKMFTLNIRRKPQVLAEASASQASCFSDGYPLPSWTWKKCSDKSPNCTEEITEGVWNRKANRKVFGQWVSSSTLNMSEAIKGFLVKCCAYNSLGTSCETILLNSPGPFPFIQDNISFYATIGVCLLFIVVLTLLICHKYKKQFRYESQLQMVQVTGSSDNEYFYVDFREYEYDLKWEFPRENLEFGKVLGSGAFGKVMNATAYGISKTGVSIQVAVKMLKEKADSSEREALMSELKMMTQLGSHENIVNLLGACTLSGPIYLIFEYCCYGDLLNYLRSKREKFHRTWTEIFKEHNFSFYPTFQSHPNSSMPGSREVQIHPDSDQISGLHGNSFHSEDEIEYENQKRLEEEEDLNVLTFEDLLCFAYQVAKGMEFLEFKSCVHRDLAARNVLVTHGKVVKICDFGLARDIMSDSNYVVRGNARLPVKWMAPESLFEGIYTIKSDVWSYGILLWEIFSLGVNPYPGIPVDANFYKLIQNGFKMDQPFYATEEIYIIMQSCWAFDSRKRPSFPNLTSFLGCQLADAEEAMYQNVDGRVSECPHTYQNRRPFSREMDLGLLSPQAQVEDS
Procedure: (§5) Ba/F3-Flt3 (Minus IL3 or Plus IL3) (Cellular Proliferation Assay)
as §2, with “Ba/F3-Flt3-transfected” for “Ba/F3-FGFR1-transfected”
as §3, §4

[4] = test system: Ba/F3-Flt3-transfected cells; experiment: as above; type: cell-based; conditions: plus 10 ng/ml murine IL3 (counterscreen); for IC50: 24 h, read-out: BAF3_FLT3 (PLUS IL3) pIC50 (converted)
Procedure: as §5
as §2, with “Ba/F3-Flt3-transfected” for “Ba/F3-FGFR1-transfected”
as §3, §4

FGFR1 (h), sequence (P11362 22-822): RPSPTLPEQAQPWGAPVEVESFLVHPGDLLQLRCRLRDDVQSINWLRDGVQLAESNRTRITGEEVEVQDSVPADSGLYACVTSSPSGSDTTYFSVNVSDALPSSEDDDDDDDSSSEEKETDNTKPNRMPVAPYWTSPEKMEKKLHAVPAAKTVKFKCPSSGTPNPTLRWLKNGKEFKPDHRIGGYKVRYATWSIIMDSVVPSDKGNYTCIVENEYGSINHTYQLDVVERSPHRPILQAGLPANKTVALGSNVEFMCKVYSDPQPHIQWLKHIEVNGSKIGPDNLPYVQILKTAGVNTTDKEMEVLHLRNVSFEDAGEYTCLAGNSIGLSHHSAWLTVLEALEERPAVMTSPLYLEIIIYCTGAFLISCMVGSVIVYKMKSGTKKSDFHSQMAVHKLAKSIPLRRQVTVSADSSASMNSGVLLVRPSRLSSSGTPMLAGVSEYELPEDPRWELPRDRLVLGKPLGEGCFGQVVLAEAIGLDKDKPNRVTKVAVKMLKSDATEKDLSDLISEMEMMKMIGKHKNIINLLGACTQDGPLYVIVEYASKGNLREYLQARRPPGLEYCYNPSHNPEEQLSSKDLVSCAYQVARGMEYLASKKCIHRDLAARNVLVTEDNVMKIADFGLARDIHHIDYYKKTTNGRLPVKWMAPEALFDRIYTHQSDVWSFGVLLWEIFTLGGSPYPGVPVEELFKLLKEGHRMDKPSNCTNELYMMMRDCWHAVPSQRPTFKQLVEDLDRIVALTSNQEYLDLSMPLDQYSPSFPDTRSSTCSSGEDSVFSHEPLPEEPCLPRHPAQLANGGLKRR
T1 sequence (P11362 whole entry, change not shown): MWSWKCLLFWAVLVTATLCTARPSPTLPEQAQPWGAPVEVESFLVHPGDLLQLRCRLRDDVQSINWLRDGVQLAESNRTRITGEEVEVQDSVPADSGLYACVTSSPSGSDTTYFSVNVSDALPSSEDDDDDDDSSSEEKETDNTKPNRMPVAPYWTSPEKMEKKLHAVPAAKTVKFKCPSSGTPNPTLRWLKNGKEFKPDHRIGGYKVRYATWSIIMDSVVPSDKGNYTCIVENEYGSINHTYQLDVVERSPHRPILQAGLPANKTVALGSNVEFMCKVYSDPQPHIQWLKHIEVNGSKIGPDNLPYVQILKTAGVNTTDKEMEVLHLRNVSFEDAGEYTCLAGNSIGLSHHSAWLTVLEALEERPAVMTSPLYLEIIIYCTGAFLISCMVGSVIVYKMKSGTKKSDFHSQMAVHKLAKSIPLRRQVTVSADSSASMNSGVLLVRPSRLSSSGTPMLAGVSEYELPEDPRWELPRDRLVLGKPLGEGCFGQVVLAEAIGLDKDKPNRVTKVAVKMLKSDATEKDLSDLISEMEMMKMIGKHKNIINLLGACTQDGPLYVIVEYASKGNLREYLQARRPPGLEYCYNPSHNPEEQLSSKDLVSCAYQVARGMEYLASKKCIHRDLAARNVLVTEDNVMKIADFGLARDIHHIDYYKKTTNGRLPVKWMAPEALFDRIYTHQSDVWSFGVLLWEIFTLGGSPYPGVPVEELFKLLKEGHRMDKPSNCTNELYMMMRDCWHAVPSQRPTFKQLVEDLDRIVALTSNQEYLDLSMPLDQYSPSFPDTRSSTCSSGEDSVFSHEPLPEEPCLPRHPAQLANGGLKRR

Row | Compound | IC50 (FGFR1 (h)) [nM] | BAF3-FGFR1 (MIN IL3) pIC50 [1] | IC50 [2] [nM] | BAF3-FLT3 (MIN IL3) pIC50 [3] | IC50 [4] [nM] | BAF3-FGFR1 (PLUS IL3) pIC50 [2] | BAF3_FLT3 (PLUS IL3) pIC50 [4]
1 | COc1cc(OC)cc(C(O)(CNCCNC(C)C)c2ccc3ncc(-c4cnn(C)c4)nc3c2)c1 (single isomer, unassigned) [Compound 5] | 603 | <5 | > 10000 | <5 | > 10000 | – | –
2 | COc1cc(OC)cc(C(O)(CNCCNC(C)C)c2ccc3ncc(-c4cnn(C)c4)nc3c2)c1 (single isomer, unassigned) [Compound 6] | 955 | <5 | – | <5 | – | – | –
3 | COc1cc(OC)cc(C(CCNC(C)C)c2ccc3ncc(-c4cnn(C)c4)nc3c2)c1 (single isomer, unassigned) [Compound 19a] | 7.59 | 6.93 | > 10000 | <5 | > 10000 | – | –
4 | COc1cc(OC)cc(C(NCCNC(C)C)c2ccc3ncc(-c4cnn(C)c4)nc3c2)c1.Cl (single isomer, unassigned) [Compound 24] | 182 | 5.16 | > 10000 | <5 | > 10000 | – | –
5 | COc1cc(OC)cc(C(CCNC(C)C)c2ccc3ncc(-c4cnn(C)c4)nc3c2)c1 (single isomer, unassigned) [Compound 32a] | 661 | 5.14 | – | <5 | – | <5 | <5
6 | CNCC(O)(c1cc(OC)cc(OC)c1)c1ccc2ncc(-c3cnn(C)c3)nc2c1.Cl (single isomer, unassigned) [Compound 37] | ~891 | <5 | > 10000 | <5 | > 10000 | – | –
7 | CNCC(O)(c1cc(OC)cc(OC)c1)c1ccc2ncc(-c3cnn(C)c3)nc2c1.Cl (single isomer, unassigned) [Compound 38] | 776 | <5 | – | <5 | – | <5 | <5
8 | COc1cc(OC)cc(C(NCCNC(C)C)c2ccc3ncc(-c4cnn(C)c4)nc3c2)c1.Cl (single isomer, unassigned) [Compound 39] | > 1000 | <5 | – | <5 | – | <5 | <5
9 | COc1cc(OC)cc(C(=O)c2ccc3ncc(-c4cnn(C)c4)nc3c2)c1 [Compound 2] | 117 | 5.58 | > 10000 | <5 | > 10000 | – | –
10 | COc1cc(OC)cc(/C(=C/C#N)c2ccc3ncc(-c4cnn(C)c4)nc3c2)c1 [Compound 3] | 2290 | <5 | > 10000 | <5 | > 10000 | – | –
11 | COc1cc(OC)cc(/C(=C\C#N)c2ccc3ncc(-c4cnn(C)c4)nc3c2)c1 [Compound 4] | 53.7 | 5.3 | > 10000 | 5.29 | > 10000 | – | –
12 | COc1cc(OC)cc(C(CCN2CCCC2=O)c2ccc3ncc(-c4cnn(C)c4)nc3c2)c1.Cl (centres unmarked) [Compound 7] | 56.2 | 5.52 | > 10000 | <5 | > 10000 | – | –
13 | COc1cc(OC)cc(/C(=C\CNC(C)C)c2ccc3ncc(-c4cnn(C)c4)nc3c2)c1 [Compound 8, {(Z)-3-(3,5-Dimethoxy-phenyl)-3-[3-(1-methyl-1H-pyrazol-4-yl)-quinoxalin-6-yl]-allyl}-isopropyl-amine] | 7.76 | 6.49 | > 10000 | 5.09 | ~8710 | – | –
14 | COc1cc(OC)cc(/C(=C/CNC(C)C)c2ccc3ncc(-c4cnn(C)c4)nc3c2)c1 [Compound 9] | 60.3 | 6.51 | > 10000 | ~5.05 | > 10000 | – | –
15 | COc1cc(OC)cc(/C(=C\CN(C)C)c2ccc3ncc(-c4cnn(C)c4)nc3c2)c1 [Compound 10, {(Z)-3-(3,5-Dimethoxy-phenyl)-3-[3-(1-methyl-1H-pyrazol-4-yl)-quinoxalin-6-yl]-allyl}-dimethyl-amine] | 17 | 5.81 | > 10000 | <5 | > 10000 | – | –
16 | COc1cc(OC)cc(/C(=C\CNCC(F)(F)F)c2ccc3ncc(-c4cnn(C)c4)nc3c2)c1 [Compound 14, {(Z)-3-(3,5-Dimethoxy-phenyl)-3-[3-(1-methyl-1H-pyrazol-4-yl)-quinoxalin-6-yl]-allyl}-(2,2,2-trifluoro-ethyl)-amine] | 13.8 | 6.17 | > 10000 | <5 | > 10000 | – | –
17 | COc1cc(OC)cc(C(CC#N)c2ccc3ncc(-c4cnn(C)c4)nc3c2)c1 (centres unmarked) [Compound 18] | 72.4 | 5.6 | > 10000 | <5 | > 10000 | – | –
18 | COc1cc(OC)cc(C(CCN)c2ccc3ncc(-c4cnn(C)c4)nc3c2)c1.Cl (centres unmarked) [Compound 20] | 77.6 | 5.86 | > 10000 | <5 | > 10000 | – | –
19 | COc1cc(OC)cc(C(CCN(C)C)c2ccc3ncc(-c4cnn(C)c4)nc3c2)c1.Cl (centres unmarked) [Compound 21] | 37.2 | 5.95 | > 10000 | <5 | > 10000 | – | –
20 | COc1cc(OC)cc(C(CCO)c2ccc3ncc(-c4cnn(C)c4)nc3c2)c1 (centres unmarked) [Compound 22] | 107 | 5.66 | > 10000 | <5 | > 10000 | – | –
